Data set [1] has as its system primary embryonic cultures and differentiated PC12 cells. The conditions noted are these: after trophic withdrawal; cited from earlier work.
In data set [2] the test system is AP-1 DNA binding complex in HeLa cell nuclear extracts. Description: AP-1 gel retardation assay. The class given is cell-based. The conditions noted are these: TNF-alpha 5 ng/ml.
Data set [3] has as its system TC-3 cells. In words: IL-1 induced pancreatic beta-cell death with peptides. It counts as cell-based. The conditions noted are these: 1 μM single addition, 15 days IL-1. As to the method: Inhibition of IL-1 induced pancreatic beta-cell death by the D-TAT-IB1(s) peptide was analyzed. TC-3 cells were incubated as described above for 30 minutes with one single addition of the indicated peptides (1 μM), then IL-1 (10 ng/ml) was added.
Apoptotic cells were then counted after two days of incubation with IL-1 by use of Propidium Iodide and Hoechst 33342 nuclear staining. A minimum of 1,000 cells were counted for each experiment. Standard Error of the Means (SEM) are indicated, n=5.
Long term inhibition of IL-1 P induced cell-death by the D-TAT-IB1 peptide was also analyzed. TC-3 cells were incubated as above for 30 minutes with one single addition of the indicated peptides (1 μM), then IL-1 (10 ng/ml) was added, followed by addition of the cytokine every two days. Apoptotic cells were then counted after 15 days of incubation with IL-1 by use of propidium iodide and Hoechst 33342 nuclear staining. […] A minimum of 1.000 cells were counted for each experiment.

For data set [4], the system named is TC-3 cell cultures. Description: Cellular import of fluorescein labeled TAT and TAT-IB1(s) peptides. The class given is cell-based. The conditions noted are these: 1 μM. As to the method: The ability of the L- and D-enantiomeric forms of TAT and TAT-IB1(s) peptides (“TAT-IB peptides”) to enter cells was evaluated. L-TAT, D-TAT, L-TAT-IB1(s), and D-TAT-IB1(s) peptides [SEQ ID NOs: 5, 6, 9 and 12, respectively] were labeled by N-terminal addition of a glycine residue conjugated to fluorescein. Labeled peptides (1 μM) were added to TC-3 cell cultures, which were maintained as described in Example 3. At predetermined times cells were washed with PBS and fixed for five minutes in ice-cold methanol-acetone (1:1) before being examined under a fluorescence microscope. Fluorescein-labeled BSA (1 μM, 12 moles/mole BSA) was used as a control.

Data set [5] relates to rat model of diabetic nephropathy. Description: STZ rat model of diabetic nephropathy, chronic administration. It counts as in vivo. Particulars: XG-102 1, 2, 4 mg/kg iv weekly; Losartan 25 mg/kg po daily. The source says: Losartan has been used as a positive control. Seventy-four male Sprague-Dawley rats (200-250 g; including 4 spare animals) from Charles River (Margate, Kent) were used. […] The diet has been purchased from Research Diets, New Jersey, USA. […] Animals have been housed in pairs throughout the study. […] During the third week of habituation, a blood sample has been taken from the lateral tail vein in the freely fed state using a hand-held glucose meter (One Touch Ultra 2). Blood sampling began at approximately 09:00. […] About 40 animals have been assigned to Cohort A and the remaining 30 to Cohort B, balanced as far as possible for body weight, plasma glucose and food and water intake. […] In all groups, food and water intake have been determined twice weekly (on the day of iv dosing and on water refill days. Blood glucose has been determined monthly. Samples were collected as detailed previously by glucometer (One Touch Ultra2). Blood samples have been taken in the freely fed state (beginning at approx. 09:00). Animals have been dosed immediately afterwards by the respective route to a timed schedule. Subsequent to dosing, each animal has been placed in a metabolism cage with free access to food and water for a 24 h period. To reduce evaporation, the glass urine collectors have been placed in a polystyrene container (Sca-online, UK) which was filled with ice. […]

For data set [6], the system named is JNKs from UV-light irradiated HeLa cells or IL-1 treated TC-3 cells. In words: c-Jun phosphorylation by activated JNKs pulled down with GST-Jun. The conditions noted are these: 25 μM. It counts as biochemical. As for the experimental part: The effects of the L-TAT or L-TAT-IB1(s) peptides as defined herein on JNKs activated by stressful stimuli were evaluated using GST-Jun to pull down JNKs from UV-light irradiated HeLa cells or IL-1 treated PTC cells. PTC cells were cultured as described above. HeLa cells were cultured in DMEM medium supplemented with 10% Fetal Calf Serum, 100 μg/mL Streptomycin, 100 units/ml Penicillin and 2 mM Glutamine. One hour prior to being used for cell extract preparation, PTC cells were activated with IL-1 as described above, whereas HeLa cells were activated by UV-light (20 J/m^2). Cell extracts were prepared from control, UV-light irradiated HeLa cells and IL-1 treated TC-3 cells by scraping the cell cultures in lysis buffer (20 mM Tris-acetate, 1 mM EGTA, 1% Triton X-100, 10 mM p-nitrophenyl-phosphate, 5 mM sodium pyrophosphate, 10 mMP-glycerophosphate, 1 mM dithiothreitol). Debris was removed by centrifugation for five minutes at 15,000 rpm in an SS-34 Beckman rotor. One-hundred μg extracts were incubated for one hour at room temperature with one μg GST-jun (amino acids 1-89) and 10 μL of glutathione-agarose beads (Sigma). Following four washes with the scraping buffer, the beads were resuspended in the same buffer supplemented with L-TAT or L-TAT-IB1(s) peptides (25 μM) for 20 minutes. […]

Data set [7] has as its system JNK mediated activation of c-Jun in HeLa cells. Description: GAL4-Jun luciferase reporter after MKK4/MKK7 co-transfection. The class given is cell-based. The conditions noted are these: 1 μM. The source says:
To determine whether the cell-permeable peptides as defined herein could block JNK signaling in vivo, we used a heterologous GAL4 system. HeLa cells, cultured as described above, were co-transfected with the 5×GAL-LUC reporter vector together with the GAL-Jun expression construct (Stratagene) comprising the activation domain of c-Jun (amino acids 1-89) linked to the GAL4 DNA-binding domain. Activation of JNK was achieved by the co-transfection of vectors expressing the directly upstream kinases MKK4 and MKK7 (see Whitmarsh et al., Science 285: 1573 (1999)). Briefly, 3×10^5 cells were transfected with the plasmids in 3.5-cm dishes using DOTAP (Boehringer Mannheim) following instructions from the manufacturer. For experiments involving GAL-Jun, 20 ng of the plasmid was transfected with 1 μg of the reporter plasmid pFR-Luc (Stratagene) and 0.5 μg of either MKK4 or MKK7 expressing plasmids. Three hours following transfection, cell media were changed and TAT and TAT-IB1(s) peptides (1 μM) were added. The luciferase activities were measured 16 hours later using the “Dual Reporter System” from Promega after normalization to protein content. […] Because HeLa cells express JNK1 and JNK2 isoforms but not JNK3, we transfected cells with JNK3.

For data set [8], the system named is recombinant JNK1, JNK2 and JNK3. Description: Solid phase kinase assay, phosphorylation of c-Jun, ATF2 and Elk1. The class given is biochemical. The conditions noted are these: dose response 0-25 μM. As for the experimental part: (§1) The effects of the peptides on JNKs-mediated phosphorylation of their target transcription factors were investigated in vitro. Recombinant and non activated JNK1, JNK2 and JNK3 were produced using a TRANSCRIPTION AND TRANSLATION rabbit reticulocyte lysate kit (Promega) and used in solid phase kinase assays with c-jun, ATF2 and Elk1, either alone or fused to glutathione-S-transferase (GST), as substrates. Dose response studies were performed wherein L-TAT or L-TAT-IB1 (s) peptides (0-25 μM) were mixed with the recombinant JNK1, JNK2, or JNK3 kinases in reaction buffer (20 mM Tris-acetate, 1 mM EGTA, 10 mM p-nitrophenyl-phosphate (pNPP), 5 mM sodium pyrophosphate, 10 mM p-glycerophosphate, 1 mM dithiothreitol) for 20 minutes. The kinase reactions were then initiated by the addition of 10 mM MgCl2 and […] ^33P-gamma-dATP and 1 μg of either GST-Jun (aa 1-89), GST-AFT2 (aa 1-96) or GST-ELK1 (aa 307-428). GST-fusion proteins were purchased from Stratagene (La Jolla, Calif.).
(§2) Ten μL of glutathione-agarose beads were also added to the mixture. Reaction products were then separated by SDS-PAGE on a denaturing 10% polyacrylamide gel. […] The ability of D-TAT, D-TAT-IB1(s) and L-TAT-IB1(s) peptides (0-250 μM dosage study) to inhibit GST-Jun (aa 1-73) phosphorylation by recombinant JNK1, JNK2, and JNK3 by were analyzed as described above. […]

Data set [9] deals with T1, JNK3 (Homo sapiens, UniProt P53779).
T1 construct: host or cells: cell-free: rabbit reticulocyte lysate transcription/translation
T1 sequence (P53779 whole entry, species assumed): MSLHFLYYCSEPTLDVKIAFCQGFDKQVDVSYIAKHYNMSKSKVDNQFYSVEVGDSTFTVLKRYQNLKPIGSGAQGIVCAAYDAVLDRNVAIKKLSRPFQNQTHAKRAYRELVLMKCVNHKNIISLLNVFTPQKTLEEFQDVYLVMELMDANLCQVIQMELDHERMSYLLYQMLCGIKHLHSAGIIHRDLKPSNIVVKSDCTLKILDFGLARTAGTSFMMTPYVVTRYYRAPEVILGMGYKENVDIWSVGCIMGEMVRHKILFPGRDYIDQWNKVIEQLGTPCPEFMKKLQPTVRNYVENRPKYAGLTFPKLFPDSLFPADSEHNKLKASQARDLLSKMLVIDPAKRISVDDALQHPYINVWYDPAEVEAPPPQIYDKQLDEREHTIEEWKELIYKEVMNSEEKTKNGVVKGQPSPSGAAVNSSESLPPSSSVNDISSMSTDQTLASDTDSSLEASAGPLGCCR
Description: Solid phase kinase assay, JNK3 phosphorylation of Elk1. The conditions noted are these: 0-25 μM. It counts as biochemical. As to the method:
as §1, §2

In data set [10] the test system is gerbil model of transient global ischemia. Particulars: cited from earlier work.

For the compound `CCSCc1ccc2c(c1)c1c3c(c4c5cc(CSCC)ccc5n5c4c1n2[C@H]1C[C@](O)(C(=O)OC)[C@]5(C)O1)CNC3=O` [CEP-1347], in data set [1], the neuronal survival entry is given as “promotes neuronal survival”.

Consider “GRKKRRQRRRPPRPKRPTTLNLFPQVPRSQD (Description of sequence L-TAT-IB1 (s) (see Table 1)) [L-TAT-IB1(s)]”, for which the “formation of the AP-1 DNA binding complex” value in [2] is “decrease the formation of the AP-1 DNA binding complex in the presence of TNF-alpha”. Further, the “long term protection from IL-1 induced cell death” value in data set [3] was “not”. For the same compound, in [4], the entry into cells result is “efficiently and rapidly (less than five minutes) entered cells”.

As for `CCCCc1nc(Cl)c(CO)n1Cc1ccc(-c2ccccc2-c2nn[nH]n2)cc1` [Losartan], the “body weight versus vehicle-treated STZ rats” value in [5] is given as “significantly lower”.

Regarding “TAT-IB(s): TAT-IB1(s) peptide of Examples 5 to 7, there the L-TAT-IB1(s) peptide (GRKKRRQRRRPPRPKRPTTLNLFPQVPRSQD)”, the “phosphorylation of c-Jun by activated JNKs” value in data set [6] is “efficiently prevented phosphorylation of c-Jun by activated JNKs”. Also, the “activation of c-Jun in cells transfected with JNK3” value in data set [7] is “inhibited JNK2 mediated activation of c-Jun”. For the same compound, the “activation of c-Jun following MKK4 and MKK7 mediated activation of JNK” value in data set [7] (luciferase 16 hours later) is “blocked activation of c-Jun following MKK4 and MKK7 mediated activation of JNK”. For the same compound, the “peptide dose with nearly complete inhibition of c-Jun, ATF2 and Elk1 phosphorylation by JNKs” value in [8] was determined as 2.5 µM. In [9], the “inhibition of JNK3 phosphorylation of Elk1” value is reported as “absence of TAT-IB(s) inhibition of JNK3 phosphorylation of Elk1”.

For the compound `N#CC(c1ccnc(NCCc2cccnc2)n1)c1nc2ccccc2s1` (centres unmarked) [AS601245], in [10], the “delayed loss of hippocampal CA1 neurons” value is given as “significant protection against the delayed loss of hippocampal CA1 neurons”.

The values above are taken from patent US20170137481A1, “Use of Cell-Permeable Peptide Inhibitors of the JNK Signal Transduction Pathway for the Treatment of Various Diseases” (Xigen Inflammation Ltd., priority 2014, published 2017).
